# Reference: DBAASP
# Experiments:
# Test in all cases: ≥ marks a high value that may be exact or a test limit, other limits are often not marked, values filed in µg/mL are converted to µM
# Streptococcus uberis = test system: Streptococcus uberis
# Micrococcus luteus = test system: Micrococcus luteus
# Leuconostoc lactis = test system: Leuconostoc lactis
# Listeria innocua = test system: Listeria innocua
# [1] = test system: Staphylococcus epidermidis
# Pasteurella multocida = test system: Pasteurella multocida
# Escherichia coli = test system: Escherichia coli
# Bacillus cereus = test system: Bacillus cereus
# Staphylococcus aureus = test system: Staphylococcus aureus
# [2] = test system: Rhodococcus rhodochrous X15
# [3] = test system: Staphylococcus carnosus KHS
# [4] = test system: Bacillus licheniformis X39
# [5] = test system: Staphylococcus aureus ATCC 25923
# [6] = test system: Enterococcus faecalis 981
# [7] = test system: Candida albicans ATCC 2002
# [8] = test system: Staphylococcus aureus ATCC 2592
# [9] = test system: Psychrobacter faecalis X29
# [10] = test system: Escherichia coli ATCC 8739
# [11] = test system: Staphylococcus aureus ATCC 43300
# [12] = test system: Staphylococcus aureus ATCC 6538
# [13] = test system: Candida albicans ATCC 90028
SMILES,MIC (Streptococcus uberis),MIC (Micrococcus luteus),MIC (Leuconostoc lactis),MIC (Listeria innocua),MIC [1],MIC (Pasteurella multocida),MIC (Escherichia coli),MIC (Bacillus cereus),MIC (Staphylococcus aureus),MIC [2],MIC [3],MIC [4],MIC [5],MIC [6],MIC [9],further results
CC[C@H](C)[C@H](NC(=O)[C@@H](NC(=O)[C@H](C)NC(=O)[C@H](C)NC(=O)[C@@H](NC(=O)[C@H](CCCCN)NC(=O)[C@H](CCCCN)NC(=O)[C@@H](NC(=O)[C@@H](NC(=O)[C@H](C)NC(=O)[C@H](Cc1ccccc1)NC(=O)[C@H](CC(C)C)NC(=O)[C@@H](N)CCCCN)C(C)C)[C@@H](C)CC)C(C)C)C(C)C)C(=O)NCC(=O)NCC(=O)N[C@@H](CC(C)C)C(N)=O [KLFAVIKKVAAVIGGL],≥ 61.5 µM,≥ 61.5 µM,7.38 µM,15.4 µM,15.4 µM,≥ 61.5 µM,61.5 µM,≥ 61.5 µM,30.7 µM,,,,,,,
CC[C@H](C)[C@H](NC(=O)[C@H](C)N)C(=O)N[C@@H](CC(C)C)C(=O)N[C@H](C(=O)N[C@H](C(=O)N[C@@H](CC(C)C)C(=O)N[C@@H](C)C(=O)N[C@@H](CC(N)=O)C(=O)N[C@@H](Cc1c[nH]c2ccccc12)C(=O)N[C@@H](C)C(=O)N[C@@H](CCCN=C(N)N)C(=O)N[C@@H](CCCCN)C(=O)N[C@@H](Cc1ccccc1)C(=O)N[C@@H](CC(C)C)C(N)=O)[C@@H](C)O)[C@@H](C)O [AILTTLANWARKFL],,,,,,,,,,4.8 µM,≥ 37.5 µM,19 µM,37.5 µM,≥ 150 µM,≥ 75 µM,MIC [7]: ≥ 75 µM; MIC [8]: ≥ 46.4 µM
CC[C@H](C)[C@H](NC(=O)[C@@H](NC(=O)CN)C(C)C)C(=O)N[C@@H](C)C(=O)N[C@@H](C)C(=O)N[C@@H](C)C(=O)N[C@@H](CCCCN)C(=O)N[C@@H](CCCCN)C(=O)N[C@H](C(=O)N[C@H](C(=O)N[C@@H](CC(N)=O)C(=O)N[C@H](C(=O)N[C@@H](CC(C)C)C(=O)N[C@@H](CCCCN)C(=O)N[C@@H](CC(N)=O)C(=O)N[C@@H](CC(C)C)C(=O)N[C@@H](Cc1ccccc1)C(N)=O)C(C)C)C(C)C)C(C)C [GVIAAAKKVVNVLKNLF],14 µM,6.73 µM,1.68 µM,14 µM,6.73 µM,≥ 56 µM,> 56 µM,14 µM,14 µM,,,,,,,
CC[C@H](C)[C@H](NC(=O)[C@@H](NC(=O)[C@@H]1CCCN1C(=O)[C@@H](NC(=O)[C@@H](NC(=O)[C@H](Cc1cnc[nH]1)NC(=O)[C@@H]1CCCN1C(=O)[C@H](CC(C)C)NC(=O)[C@@H](NC(=O)[C@H](Cc1cnc[nH]1)NC(=O)[C@H](CCC(N)=O)NC(=O)[C@H](C)NC(=O)[C@@H](NC(=O)[C@H](CO)NC(=O)CNC(=O)[C@H](CC(C)C)NC(=O)[C@@H](NC(=O)[C@H](CO)NC(=O)[C@H](CC(C)C)NC(=O)[C@H](CC(C)C)NC(=O)CN)C(C)C)C(C)C)C(C)C)C(C)C)C(C)C)C(C)C)C(=O)N[C@@H](C)C(=O)N[C@@H](CCC(=O)O)C(=O)N[C@@H](Cc1cnc[nH]1)C(=O)N[C@@H](CC(C)C)C(N)=O [GLLSVLGSVAQHVLPHVVPVIAEHL],≥ 38.7 µM,0.58 µM,9.67 µM,≥ 38.7 µM,≥ 38.7 µM,9.67 µM,38.7 µM,19.3 µM,38.7 µM,,,,,,,
CC[C@H](C)[C@H](NC(=O)[C@H](CCCCN)NC(=O)[C@@H](NC(=O)[C@H](CO)NC(=O)[C@H](CC(N)=O)NC(=O)[C@H](Cc1c[nH]c2ccccc12)NC(=O)[C@H](CC(C)C)NC(=O)CN)[C@@H](C)CC)C(=O)N[C@@H](C)C(=O)NCC(=O)N[C@@H](CCCCN)C(=O)N[C@@H](CCCCN)C(=O)N[C@@H](CC(C)C)C(=O)N[C@@H](Cc1ccccc1)C(=O)N[C@H](C(=O)N[C@@H](CC(N)=O)C(=O)N[C@H](C(=O)N[C@@H](CC(C)C)C(=O)N[C@@H](CC(=O)O)C(=O)N[C@@H](CCCCN)C(=O)N[C@H](C(=O)N[C@@H](CCCN=C(N)N)C(=O)N[C@H]1CSSC[C@@H](C(=O)N[C@@H](CCCCN)C(=O)N[C@H](C(=O)N[C@@H](CO)C(=O)N2CCC[C@H]2C(=O)N[C@@H](CC(=O)O)C(=O)N[C@H](C(=O)N[C@@H](CCC(=O)O)C(=O)N[C@@H](Cc2ccc(O)cc2)C(=O)N[C@@H](Cc2cnc[nH]2)C(=O)N[C@@H](CCCCN)C(=O)O)C(C)C)[C@@H](C)O)NC(=O)CNC(=O)CNC(=O)[C@H](C)NC(=O)[C@H](C(C)C)NC(=O)[C@H](CCCCN)NC1=O)[C@@H](C)CC)C(C)C)C(C)C [GLWNSIKIAGKKLFVNVLDKIRCKVAGGCKTSPDVEYHK],,,,,,,,,,,,,,,,MIC [10]: 6.3 µM; MIC [11]: 100 µM; MIC [12]: 6.3 µM
CC[C@H](C)[C@H](NC(=O)[C@@H]1CCCN1C(=O)[C@H](Cc1ccccc1)NC(=O)[C@@H](N)Cc1ccccc1)C(=O)N[C@H](C(=O)NCC(=O)N[C@@H](CCCCN)C(=O)N[C@@H](CC(C)C)C(=O)N[C@@H](CC(C)C)C(=O)N[C@@H](CO)C(=O)NCC(=O)N[C@@H](CC(C)C)C(=O)N[C@@H](Cc1ccccc1)C(N)=O)C(C)C [FFPIVGKLLSGLF],,,,,,,,,,4.5 µM,19 µM,19 µM,150 µM,≥ 75 µM,,
CC[C@H](C)[C@H](NC(=O)[C@@H]1CCCN1C(=O)[C@H](CC(C)C)NC(=O)[C@@H](N)Cc1ccccc1)C(=O)N[C@H](C(=O)NCC(=O)N[C@@H](CCCCN)C(=O)N[C@@H](CC(C)C)C(=O)N[C@@H](CC(C)C)C(=O)N[C@@H](CO)C(=O)NCC(=O)N[C@@H](CC(C)C)C(=O)N[C@@H](Cc1ccccc1)C(N)=O)C(C)C [FLPIVGKLLSGLF],,,,,,,,,,9 µM,19 µM,19 µM,150 µM,≥ 37.5 µM,,
CC[C@H](C)[C@H](NC(=O)[C@H](CCCCN)NC(=O)[C@@H](NC(=O)[C@H](CO)NC(=O)[C@H](CC(N)=O)NC(=O)[C@H](Cc1c[nH]c2ccccc12)NC(=O)[C@H](CC(C)C)NC(=O)CN)[C@@H](C)CC)C(=O)N[C@@H](C)C(=O)NCC(=O)N[C@@H](CCCCN)C(=O)N[C@@H](CCCCN)C(=O)N[C@@H](CC(C)C)C(=O)N[C@@H](Cc1ccccc1)C(=O)N[C@H](C(=O)N[C@@H](CC(N)=O)C(=O)N[C@H](C(=O)N[C@@H](CC(C)C)C(=O)N[C@@H](CC(=O)O)C(=O)N[C@@H](CCCCN)C(=O)N[C@H](C(=O)N[C@@H](CCCN=C(N)N)C(=O)N[C@@H](CO)C(=O)N[C@@H](CCCCN)C(=O)N[C@H](C(=O)N[C@@H](C)C(=O)NCC(=O)NCC(=O)N[C@@H](CO)C(=O)O)C(C)C)[C@@H](C)CC)C(C)C)C(C)C [GLWNSIKIAGKKLFVNVLDKIRSKVAGGS],,,,,,,,,,,,,,,,MIC [10]: 3.1 µM; MIC [11]: 25 µM; MIC [13]: ≥ 100 µM; MIC [12]: 6.3 µM

# Now from value to compound, other results behind:
MIC (Streptococcus uberis),MIC (Micrococcus luteus),MIC (Leuconostoc lactis),MIC (Listeria innocua),MIC [1],MIC (Pasteurella multocida),MIC (Escherichia coli),MIC (Bacillus cereus),MIC (Staphylococcus aureus),MIC [2],MIC [3],MIC [4],MIC [5],MIC [6],MIC [9],SMILES,further results
,,,,,,,,,,,,,,≥ 400 µM,CC[C@H](C)[C@@H]1NC(=O)[C@H](CCCCN)NC(=O)[C@@H](NC(=O)[C@H](CCCCN)NC(=O)[C@H](C)NC(=O)[C@H](CCCCN)NC(=O)[C@H](CC(=O)O)NC(=O)[C@H](CCSC)NC(=O)[C@H](CC(C)C)NC(=O)[C@@H](NC(=O)CNC(=O)[C@H](C)NC(=O)[C@H](CC(C)C)NC(=O)[C@H](CC(N)=O)NC(=O)[C@@H](NC(=O)[C@@H](NC(=O)[C@@H](NC(=O)[C@H](CC(N)=O)NC(=O)[C@H](CCSC)NC(=O)[C@H](C)NC(=O)[C@@H](NC(=O)[C@H](CC(N)=O)NC(=O)[C@H](CC(C)C)NC(=O)[C@H](Cc2ccccc2)NC(=O)CN)[C@@H](C)O)[C@@H](C)O)C(C)C)[C@@H](C)O)[C@@H](C)O)CSSC[C@@H](C(=O)O)NC(=O)CNC(=O)[C@H](CCCN=C(N)N)NC1=O [GFLNTAMNTVTNLAGTLMDKAKCKIRGC],
,,,,,,,,,,,14 µM,,,1.7 µM,CC[C@H](C)[C@H](NC(=O)[C@H](CCCCN)NC(=O)[C@H](CC(=O)O)NC(=O)[C@H](CC(C)C)NC(=O)[C@@H](NC(=O)[C@H](CC(N)=O)NC(=O)[C@H](CC(C)C)NC(=O)[C@@H](NC(=O)[C@H](Cc1ccccc1)NC(=O)[C@H](CCC(N)=O)NC(=O)[C@H](CCCCN)NC(=O)CNC(=O)[C@H](C)NC(=O)[C@H](CC(N)=O)NC(=O)[C@H](CCCCN)NC(=O)[C@H](Cc1ccccc1)NC(=O)[C@H](CC(N)=O)NC(=O)[C@H](CCC(=O)O)NC(=O)[C@H](Cc1c[nH]c2ccccc12)NC(=O)[C@H](CC(C)C)NC(=O)[C@@H](N)CO)[C@@H](C)CC)[C@@H](C)CC)C(=O)N[C@@H](CCCN=C(N)N)C(=O)N[C@H]1CSSC[C@@H](C(=O)N[C@@H](CCCN=C(N)N)C(=O)N[C@H](C(=O)O)[C@@H](C)O)NC(=O)CNC(=O)CNC(=O)[C@H](C)NC(=O)[C@H](C(C)C)NC(=O)[C@H](CCCN=C(N)N)NC1=O [SLWENFKNAGKQFILNILDKIRCRVAGGCRT],MIC [8]: 1.7 µM
